Reference: US20100317848A1, “PROCESS FOR THE SYNTHESIS OF DERIVATIVES OF 3-AMINO-TETRAHYDROFURAN-3-CARBOXYLIC ACID AND USE THEREOF AS MEDICAMENTS” (BOEHRINGER INGELHEIM INTERNATIONAL GMBH, priority 2006, published 2010)
≈ marks a conversion by molar mass, not a printed value. Entries after “also recorded” stand apart in the source; their conditions may differ. Values belong to the compound of their own block, whether it stands above or below them.

Experiments:
[1] = molecular target: T1, human factor Xa (Homo sapiens, UniProt P00742); experiment: Inhibition of factor Xa, enzyme-kinetic measurement with chromogenic substrate; assay type: biochemical; conditions: FXa assay; (S)-form versus (R)-form at the tetrahydrofuran carbon
T1 construct: released from the colourless chromogenic substrate by human factor Xa; purchased Calbiochem
Description: The compounds listed in the Experimental Section were investigated for their effect on the inhibition of factor Xa as follows:
Enzyme-kinetic measurement with chromogenic substrate. The quantity of p-nitroaniline (pNA) released from the colourless chromogenic substrate by human factor Xa is determined photometrically at 405 nm. It is proportional to the activity of the enzyme used. The inhibition of the enzyme activity by the test substance (in relation to the solvent control) is determined at various concentrations of test substance and from this the IC50 is calculated, as the concentration which inhibits the factor Xa used by 50%.
Tris(hydroxymethyl)-aminomethane buffer (100 mMol) and sodium chloride (150 mMol), pH 8.0 plus 1 mg/ml Human Albumin Fraction V, protease-free Factor Xa (Calbiochem), spec. activity: 217 IU/mg, final concentration: 7 IU/ml for each reaction mixture Substrate S 2765 (Chromogenix), final concentration: 0.3 mM/l (1 KM) for each reaction mixture Test substance: final concentration 100, 30, 10, 3, 1, 0.3, 0.1, 0.03, 0.01, 0.003, 0.001 μMol/l
10 μl of a 23.5-times concentrated starting solution of the test substance or solvent (control), 175 μl of TRIS/HSA buffer and 25 μl of a 65.8 U/L Factor Xa working solution are incubated for 10 minutes at 37° C. After the addition of 25 μl of S 2765 working solution (2.82 mMol/l) the sample is measured in a photometer (SpectraMax 250) at 405 nm for 600 seconds at 37° C.
1. Determining the maximum increase (deltaOD/minutes) over 21 measuring points. 2. Determining the % inhibition based on the solvent control. 3. Plotting a dosage/activity curve (% inhibition vs substance concentration). 4. Determining the IC50 by interpolating the X-value (substance concentration) of the dosage/activity curve at Y=50% inhibition.

[2] = Solubility in different aqueous media; assay type: physicochemical; conditions: for solubility: aqueous medium
[3] = Intrinsic dissolution rate in aqueous media, rotating disc method; assay type: physicochemical; conditions: for dissolution rate: 37° C., 200 rpm
Description: The intrinsic dissolution rate was determined in aqueous media covering a range of pH 1.1-7.4 using the rotating disc method which maintains a constant surface area. 5 mg of drug substance was compressed to form a disc at 356.1 N for 60 s. These discs were mounted to specially designed sample holders which fit into a Sotax dissolution tester. The dissolution media (37° C.) were stirred at 200 rpm. Samples were automatically withdrawn every second minute from the dissolution vessel and assayed via UV spectrophotometry. The intrinsic dissolution rate expressed in μg/cm^2/min was calculated using the slope of the concentration versus time plot and from the linear portion of the slope of the dissolution curve, volume of dissolution medium (35 ml) and area (diameter: 2 mm) of the exposed disk.

T1 sequence (P00742 235-488 limits assumed): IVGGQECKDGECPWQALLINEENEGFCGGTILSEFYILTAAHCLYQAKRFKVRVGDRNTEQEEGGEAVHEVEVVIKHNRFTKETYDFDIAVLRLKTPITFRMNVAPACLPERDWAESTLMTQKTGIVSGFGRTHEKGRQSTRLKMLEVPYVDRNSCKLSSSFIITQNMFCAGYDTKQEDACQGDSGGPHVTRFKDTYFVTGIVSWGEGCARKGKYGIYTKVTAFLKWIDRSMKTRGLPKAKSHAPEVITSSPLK
T1 sequence (P00742 41-179 partner limits assumed): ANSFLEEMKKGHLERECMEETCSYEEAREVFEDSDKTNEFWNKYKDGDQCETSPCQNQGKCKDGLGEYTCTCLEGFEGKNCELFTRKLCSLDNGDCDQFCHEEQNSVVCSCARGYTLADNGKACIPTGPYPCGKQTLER

- IC50 at an approximately x-fold lower plasma concentration compared to the (R)-enantiomer / corresponding (3R)-diastereoisomer [1]: approximately 17 fold
SMILES: Cc1cc(NC(=O)[C@]2(NC(=O)c3ccc(Cl)s3)CCOC2)ccc1N1CCOCC/C1=N\C#N [(S)-5-chloro-thiophene-2-carboxylic acid-N-{3-[3-methyl-4-(5-cyanimin-[1.4]oxazepan-4-yl)-phenylcarbamoyl]-tetrahydrofuran-3-yl}-amide]

- IC50 at an approximately x-fold lower plasma concentration compared to the (R)-enantiomer / corresponding (3R)-diastereoisomer [1]: approximately 16 fold
SMILES: Cc1cc(NC(=O)[C@]2(NC(=O)c3ccc(Br)s3)CCOC2)ccc1N1CCOCCC1=O [(S)-5-bromo-thiophene-2-carboxylic acid-N-{3-[3-methyl-4-(5-oxo-[1,4]oxazepan-4-yl)-phenylcarbamoyl]-tetrahydrofuran-3-yl}-amide]

- IC50 at an approximately x-fold lower plasma concentration compared to the (R)-enantiomer / corresponding (3R)-diastereoisomer [1]: approximately 15 fold
SMILES: N#C/N=C1\CCOCCN1c1ccc(NC(=O)[C@]2(NC(=O)c3ccc(Cl)s3)CCOC2)cc1 [(S)-5-chloro-thiophene-2-carboxylic acid-N-{3-[4-(5-cyanimin-[1.4]oxazepan-4-yl)-phenylcarbamoyl]-tetrahydrofuran-3-yl}-amide]

Second part, the compound before the results:

SMILES: CN1CCc2ccc(NC(=O)[C@]3(NC(=O)c4ccc(Br)s4)CCOC3)cc2CC1 [(S)-3-[(5-bromo-thiophen-2-yl)-carbonylamino]-N-(3-methyl-2,3,4,5-tetrahydro-1H-benzo[d]azepin-7-yl)-tetrahydrofuran-3-carboxylic acid amide]
- IC50 at an approximately x-fold lower plasma concentration compared to the (R)-enantiomer / corresponding (3R)-diastereoisomer [1]: approximately 9 fold

SMILES: C[C@H]1CN(C)CCc2ccc(NC(=O)[C@]3(NC(=O)c4ccc(Cl)s4)CCOC3)cc21 [(3S)-3-[(5-chloro-thiophen-2-yl)-carbonylamino]-N-((5R)-3,5-dimethyl-2,3,4,5-tetrahydro-1H-benzo[d]azepin-7-yl)-tetrahydrofuran-3-carboxylic acid amide]
- IC50 at an approximately x-fold lower plasma concentration compared to the (R)-enantiomer / corresponding (3R)-diastereoisomer [1]: approximately 10 fold

SMILES: C[C@@H]1CN(C)CCc2ccc(NC(=O)[C@]3(NC(=O)c4ccc(Cl)s4)CCOC3)cc21 [(3S)-3-[(5-chloro-thiophen-2-yl)-carbonylamino]-N-((5S)-3,5-dimethyl-2,3,4,5-tetrahydro-1H-benzo[d]azepin-7-yl)-tetrahydrofuran-3-carboxylic acid amide]
- IC50 at an approximately x-fold lower plasma concentration compared to the (R)-enantiomer / corresponding (3R)-diastereoisomer [1]: approximately 7 fold

SMILES: CN1CCc2ccc(NC(=O)[C@]3(NC(=O)c4ccc(Cl)s4)CCOC3)cc2CC1 [(S)-3-[(5-chloro-thiophen-2-yl)-carbonylamino]-N-(3-methyl-2,3,4,5-tetrahydro-1H-benzo[d]azepin-7-yl)-tetrahydrofuran-3-carboxylic acid amide]
- IC50 at an approximately x-fold lower plasma concentration compared to the (R)-enantiomer / corresponding (3R)-diastereoisomer [1]: approximately 8 fold
- solubility in words ([2]; acidic media): excellent solubility; also recorded: high solubility
- solubility ([2]; aqueous buffer, medium: 0.01 N NaOH): 46 µg/mL (≈ 0.106 mM)
- solubility ([2]; aqueous buffer, medium: pH 2.2): > 10000 µg/mL
- solubility ([2]; aqueous buffer, medium: pH 4.0): > 10000 µg/mL
- solubility ([2]; aqueous buffer, medium: pH 6.0): > 10000 µg/mL
- solubility ([2]; aqueous buffer, medium: pH 7.4): 1800 µg/mL (≈ 4.15 mM)
- solubility ([2]; simulated gastric fluid, medium: 0.1 N HCl): > 10000 µg/mL
- solubility ([2]; medium: water): 280 µg/mL (≈ 0.645 mM)
- pH of the saturated solution ([2]; medium: 0.01 N NaOH): 11.8
- pH of the saturated solution ([2]; medium: 0.1 N HCl): 1.0
- pH of the saturated solution ([2]; medium: pH 2.2): 2.4
- pH of the saturated solution ([2]; medium: pH 4.0): 4.3
- pH of the saturated solution ([2]; medium: pH 6.0): 6.3
- pH of the saturated solution ([2]; medium: pH 7.4): 7.5
- pH of the saturated solution ([2]; medium: water): 8.6
- solubility in words ([2]; neutral and basic media): reduced solubility
- dissolution rate in words ([3]; pH 7.4): acceptable dissolution rates
- dissolution rate ([3]; pH of aqueous medium 1.1): 8220 μg/cm^2/min
- dissolution rate ([3]; pH of aqueous medium 2.3): 4520 μg/cm^2/min
- dissolution rate ([3]; pH of aqueous medium 3.2): 4000 μg/cm^2/min
- dissolution rate ([3]; pH of aqueous medium 4.1): 3110 μg/cm^2/min
- dissolution rate ([3]; pH of aqueous medium 5.1): 4015 μg/cm^2/min
- dissolution rate ([3]; pH of aqueous medium 6.0): 4140 μg/cm^2/min
- dissolution rate ([3]; pH of aqueous medium 7.4): 240 μg/cm^2/min
- dissolution rate in words ([3]; up to pH 6.0): very fast dissolution rates
